{
  "source": "patent US9265268B2",
  "about": "“Method of handling bananas” (priority 2009, dated 2016)",
  "format_in_all_cases": "in vivo, Musa",
  "key": {"bananas [1]": {"tested_on": "bananas", "experiment": "Example 2B: evaluation process B (3 days post-MCP)", "conditions": "MAP-3 and MAP-10 groups (MAP bag, 300 or 1000 ppb 1-MCP); 3 days in bag at 14° C.", "description": "(§1) Bananas were harvested at 13 weeks of age. Fruit bunches were separated into hands, then washed, and excess latex was removed in chlorinated water tanks using standard commercial practices. The washed hands of bananas were further broken into clusters and treated with fungicide. Clusters were placed into plastic bags; each bag held approximately 1.4 kg (3 lbs) of bananas. The bananas remained in these bags until they were removed for evaluation (see below).\n(§2) At day 5 at approximately 4 pm, the bananas had reached color stage 2.5 to 3.5. Treatment groups PE-3-C, PE-10-C, MAP-3, and MAP-10 were then exposed to 1-MCP overnight at the concentrations shown above.\nThis Example was the same as Example 2A, except that after exposure to 1-MCP, the bananas remained in their bags in the holding room at 14° C. for 3 days instead of 4 days."}, "bananas [2]": {"tested_on": "bananas", "experiment": "Example US-7c: various number of bananas per bag (day on which sugar spots developed)", "conditions": "for SS day (day during holding at 17.8° C. on which sugar spots developed): MAP/MCP: MAP type M, 1,000 ppb 1-MCP", "protocol": "Bananas were handled and tested as in Example US-1, except that the number of bananas (“# of B”) per bag was varied. Results for MAP bags type M were compared at 0 1-MCP (“MAP only”) and at 1,000 ppb of 1-MCP (“MAP/MCP”). MAP only samples are comparative; MAP/MCP samples exemplify the present invention.\nAlso, the sugar spots were assessed. In this experiment, the number of the day during the holding at 17.8° C. on which sugar spots developed is noted (“SS day”). Bananas in T-bags (with either 0 or 1,000 ppb of 1-MCP) developed sugar spots on day 3."}, "bananas [3]": {"tested_on": "bananas", "experiment": "Example US-7a: various number of bananas per bag (appearance)", "design": "scale not given here", "conditions": "1,000 ppb 1-MCP, Day Number 7", "protocol": "Bananas were handled and tested as in Example US-1, except that the number of bananas per bag was varied. Concentration of 1-MCP was 1,000 ppb. Also, two different types of MAP bags were used: type M and type D, as described above. Bananas were evaluated on day #7 after treatment with 1-MCP."}, "bananas [4]": {"tested_on": "bananas", "experiment": "Example 2A: evaluation process A (4 days post-MCP in bag at 14° C., then 7 days at approx. 22° C.)", "conditions": "for Color Stage (mean) / Sugar Spots (mean %): 4 days in bag at 14° C., then 7 days at approx. 22° C.", "description": "The color of banana peels is rated according to a seven stage rating scale: stage 1 (dark green); stage 2 (all light green); stage 3 (half green and half yellow); stage 4 (more yellow than green); stage 5 (green tips and necks); stage 6 (all yellow; maybe light green necks, no green tips); stage 7 (yellow flecked with brown). Consumers generally prefer to eat bananas in stage 5 or stage 6.\nas §1\nThe plastic bags were either T bags or were modified-atmosphere bags (“MAP” bags). The T bags (also called “PE bags” herein) were typical of bags normally used in commerce for bananas. The bags were then placed into cartons. Each carton held 13 bags. Each carton either held MAP bags only or else held PE bags only. 20 cartons of MAP bags and 20 cartons of PE bags were prepared.\nThe cartons were placed in a refrigerated truck and transported to a storage facility. The distance from harvest to storage was approximately 100 km. The temperature in the refrigerated truck was 14 to 18° C. To simulate the effect of shipping over long distances, the cartons were placed in conventional cold storage room at 14° C. for two weeks. In storage, the cartons were placed so that air could circulate between and around each carton.\nAfter the storage period, the thermostat of the holding room was raised to 18° C., and no further action was taken until the holding room was at 18° C. for 12 hours. Bananas were ripened using a 5-day schedule, as follows. The temperatures shown are pulp temperatures; if necessary, the thermostat was lowered so that pulp temperature remained at the desired temperature despite any respiration that may be taking place in the bananas.\nOn day 5 at approximately 4 pm, the cartons were divided in to seven groups: one untreated control (“UTC”) group (6 cartons) and six treatment groups. Each group had equal number of PE cartons and MAP cartons. The six treatment groups were as follows:\nUTC cartons were placed in a shed that had good ventilation. The remaining cartons remained in the holding room. Four airtight tents were erected in the holding room. Each tent held all the cartons for one of the treatment groups PE-3-C, PE-10-C, MAP-3, and MAP-10.\nas §2\nSome of the bananas from each group described in Example 2 were evaluated by process “A” as follows: After treatment groups PE-3-C, PE-10-C, MAP-3, and MAP-10 received exposure to 1-MCP, the bananas remained in their bags in the holding room at 14° C. for 4 days; then the bananas were removed from the bags and stored at approximately 22° C. for 7 days; then the bananas were evaluated."}, "[5]": {"conditions": "MAP-10: MAP bag, 1000 ppb 1-MCP"}, "[6]": {"conditions": "PE-10-C: PE bag, 1000 ppb 1-MCP"}},
  "data": [
    {"smiles": "CC1=CC1", "note": "[1-MCP, 1-methylcyclopropene]", "values": [
      {"measurement": "color and sugar spots versus comparative examples", "setting": "bananas [1]", "value": "same type of improvements over the comparative examples as in Example 2A"},
      {"measurement": "SS day (day during holding at 17.8° C. on which sugar spots developed)", "setting": "bananas [2]; # of B 1", "value": 4},
      {"measurement": "SS day (day during holding at 17.8° C. on which sugar spots developed)", "setting": "bananas [2]; # of B 3", "value": 5},
      {"measurement": "SS day (day during holding at 17.8° C. on which sugar spots developed)", "setting": "bananas [2]; # of B 5", "value": 6},
      {"measurement": "SS day (day during holding at 17.8° C. on which sugar spots developed)", "setting": "bananas [2]; # of B 7", "value": 8},
      {"measurement": "SS day (day during holding at 17.8° C. on which sugar spots developed)", "setting": "bananas [2]; # of B 9", "value": 8},
      {"measurement": "SS day (day during holding at 17.8° C. on which sugar spots developed)", "setting": "bananas [2]; # of B 12", "value": 8},
      {"measurement": "day on which sugar spots developed", "setting": "bananas [2]; T-bags, 1,000 ppb of 1-MCP", "value": 3},
      {"measurement": "Color Stage", "setting": "bananas [3]; MAP type D, 1 bananas per bag", "value": 6.7},
      {"measurement": "Sugar Spots", "setting": "bananas [3]; MAP type D, 1 bananas per bag", "value": 0.7},
      {"measurement": "Color Stage", "setting": "bananas [3]; MAP type D, 2 bananas per bag", "value": 5.5},
      {"measurement": "Sugar Spots", "setting": "bananas [3]; MAP type D, 2 bananas per bag", "value": 1.0},
      {"measurement": "Color Stage", "setting": "bananas [3]; MAP type D, 3 bananas per bag", "value": 5.5},
      {"measurement": "Sugar Spots", "setting": "bananas [3]; MAP type D, 3 bananas per bag", "value": 0.3},
      {"measurement": "Color Stage", "setting": "bananas [3]; MAP type D, 4 bananas per bag", "value": 5.5},
      {"measurement": "Sugar Spots", "setting": "bananas [3]; MAP type D, 4 bananas per bag", "value": 0.7},
      {"measurement": "Color Stage", "setting": "bananas [3]; MAP type D, 5 bananas per bag", "value": 4.8},
      {"measurement": "Sugar Spots", "setting": "bananas [3]; MAP type D, 5 bananas per bag", "value": 1.3},
      {"measurement": "Color Stage", "setting": "bananas [3]; MAP type D, 6 bananas per bag", "value": 5.2},
      {"measurement": "Sugar Spots", "setting": "bananas [3]; MAP type D, 6 bananas per bag", "value": 0.3},
      {"measurement": "Color Stage", "setting": "bananas [3]; MAP type D, 7 bananas per bag", "value": 4.8},
      {"measurement": "Sugar Spots", "setting": "bananas [3]; MAP type D, 7 bananas per bag", "value": 0.7},
      {"measurement": "Color Stage", "setting": "bananas [3]; MAP type D, 8 bananas per bag", "value": 4.5},
      {"measurement": "Sugar Spots", "setting": "bananas [3]; MAP type D, 8 bananas per bag", "value": 0.0},
      {"measurement": "Color Stage", "setting": "bananas [3]; MAP type D, 9 bananas per bag", "value": 4.5},
      {"measurement": "Sugar Spots", "setting": "bananas [3]; MAP type D, 9 bananas per bag", "value": 0.7},
      {"measurement": "Color Stage", "setting": "bananas [3]; MAP type D, 10 bananas per bag", "value": 4.5},
      {"measurement": "Sugar Spots", "setting": "bananas [3]; MAP type D, 10 bananas per bag", "value": 0.0},
      {"measurement": "Color Stage", "setting": "bananas [3]; MAP type D, 11 bananas per bag", "value": 4.3},
      {"measurement": "Sugar Spots", "setting": "bananas [3]; MAP type D, 11 bananas per bag", "value": 0.0},
      {"measurement": "Color Stage", "setting": "bananas [3]; MAP type D, 12 bananas per bag", "value": 4.5},
      {"measurement": "Sugar Spots", "setting": "bananas [3]; MAP type D, 12 bananas per bag", "value": 0.0},
      {"measurement": "Color Stage", "setting": "bananas [3]; MAP type M, 1 bananas per bag", "value": 6.2},
      {"measurement": "Sugar Spots", "setting": "bananas [3]; MAP type M, 1 bananas per bag", "value": 2.0},
      {"measurement": "Color Stage", "setting": "bananas [3]; MAP type M, 2 bananas per bag", "value": 5.3},
      {"measurement": "Sugar Spots", "setting": "bananas [3]; MAP type M, 2 bananas per bag", "value": 1.7},
      {"measurement": "Color Stage", "setting": "bananas [3]; MAP type M, 3 bananas per bag", "value": 4.8},
      {"measurement": "Sugar Spots", "setting": "bananas [3]; MAP type M, 3 bananas per bag", "value": 2.0},
      {"measurement": "Color Stage", "setting": "bananas [3]; MAP type M, 4 bananas per bag", "value": 5.3},
      {"measurement": "Sugar Spots", "setting": "bananas [3]; MAP type M, 4 bananas per bag", "value": 1.0},
      {"measurement": "Color Stage", "setting": "bananas [3]; MAP type M, 5 bananas per bag", "value": 5.2},
      {"measurement": "Sugar Spots", "setting": "bananas [3]; MAP type M, 5 bananas per bag", "value": 1.0},
      {"measurement": "Color Stage", "setting": "bananas [3]; MAP type M, 6 bananas per bag", "value": 4.8},
      {"measurement": "Sugar Spots", "setting": "bananas [3]; MAP type M, 6 bananas per bag", "value": 1.0},
      {"measurement": "Color Stage", "setting": "bananas [3]; MAP type M, 7 bananas per bag", "value": 5.0},
      {"measurement": "Sugar Spots", "setting": "bananas [3]; MAP type M, 7 bananas per bag", "value": 0.0},
      {"measurement": "Color Stage", "setting": "bananas [3]; MAP type M, 8 bananas per bag", "value": 4.5},
      {"measurement": "Sugar Spots", "setting": "bananas [3]; MAP type M, 8 bananas per bag", "value": 1.0},
      {"measurement": "Color Stage", "setting": "bananas [3]; MAP type M, 9 bananas per bag", "value": 4.5},
      {"measurement": "Sugar Spots", "setting": "bananas [3]; MAP type M, 9 bananas per bag", "value": 0.7},
      {"measurement": "Color Stage", "setting": "bananas [3]; MAP type M, 10 bananas per bag", "value": 5.2},
      {"measurement": "Sugar Spots", "setting": "bananas [3]; MAP type M, 10 bananas per bag", "value": 1.0},
      {"measurement": "Color Stage", "setting": "bananas [3]; MAP type M, 11 bananas per bag", "value": 4.5},
      {"measurement": "Sugar Spots", "setting": "bananas [3]; MAP type M, 11 bananas per bag", "value": 0.0},
      {"measurement": "Color Stage", "setting": "bananas [3]; MAP type M, 12 bananas per bag", "value": 4.5},
      {"measurement": "Sugar Spots", "setting": "bananas [3]; MAP type M, 12 bananas per bag", "value": 0.0},
      {"measurement": "Comments (additional observations)", "setting": "bananas [4]; MAP-3: MAP bag, 300 ppb 1-MCP", "value": "Fruit with excellent bright yellow color. Only high"},
      {"measurement": "Delay in sugar spot development longer than MAP-0", "setting": "bananas [4]; MAP-3: MAP bag, 300 ppb 1-MCP", "value": "at least three"},
      {"measurement": "Color Stage (mean)", "setting": "bananas [4]; MAP-3: MAP bag, 300 ppb 1-MCP", "value": 6.3},
      {"measurement": "Sugar Spots (mean %)", "setting": "bananas [4]; MAP-3: MAP bag, 300 ppb 1-MCP", "value": 3, "unit": "%"},
      {"measurement": "Comments (additional observations)", "setting": "bananas [4]; [5]", "value": "Almost all fruit was at the right color for sale,"},
      {"measurement": "Delay in sugar spot development longer than MAP-0", "setting": "bananas [4]; [5]", "value": "at least three"},
      {"measurement": "Color Stage (mean)", "setting": "bananas [4]; [5]", "value": 6.1},
      {"measurement": "Sugar Spots (mean %)", "setting": "bananas [4]; [5]", "value": 2, "unit": "%"},
      {"measurement": "Comments (additional observations)", "setting": "bananas [4]; PE-3-C: PE bag, 300 ppb 1-MCP", "value": "Some fruit was in a good color stage. However most"},
      {"measurement": "Color Stage (mean)", "setting": "bananas [4]; PE-3-C: PE bag, 300 ppb 1-MCP", "value": 6.8},
      {"measurement": "Sugar Spots (mean %)", "setting": "bananas [4]; PE-3-C: PE bag, 300 ppb 1-MCP", "value": 35, "unit": "%"},
      {"measurement": "Comments (additional observations)", "setting": "bananas [4]; [6]", "value": "Some fruit was in a good color stage. However most"},
      {"measurement": "Color Stage (mean)", "setting": "bananas [4]; [6]", "value": 6.9},
      {"measurement": "Sugar Spots (mean %)", "setting": "bananas [4]; [6]", "value": 73, "unit": "%"}
    ]}
  ]
}
